Literature values, collected in patent US20100215736A1, “ORAL DOSAGE FORM PROVIDING FAST ADSORPTION OF DRUG” (NOVARTIS AG, priority 2007, published 2010).

Conditions: in vivo

**Q.** For `CC(C)Cc1ccc(C(C)C(=O)[O-])cc1.O.O.[Na+]` (stereo not shown) [ibuprofen sodium dihydrate salt], which tmax is on record?
**A.** 36 min
